Test results reported in patent publication US20240209353A1, “NADK2 INHIBITION IN CANCER AND FIBROTIC DISORDERS” (Memorial Sloan-Kettering Cancer Center, priority 2021, published 2024).
“And” between values parts separate entries of the source, which are not always exact repeats. Equal entries are not always repeated.

System: immunopurified mitochondria of DLD1-OMP25HA cells
Experiment: LC-MS metabolomic profiling, Mito-IP samples
Assay type: cell-based, human
Procedure: Rapid immunopurification of mitochondria was performed following the published methodology (4). In brief, cells with control or NADK2 knockout were engineered to express the HA-tagged OMP25 protein (Addgene, 83356); or in the case of FIG. 5E, parental DLD1 cells were engineered to express the HA-tagged OMP25 protein or the Myc-tagged OMP25 protein (Addgene, 83355), 30 million cells were washed and dounce homogenized in KPBS (136 mM KCl and 10 mM KH2PO4, pH 7.25). The homogenate was then cleared by centrifugation and the supernatant was applied to anti-HA beads (Thermo Fisher, 88837) and incubated with rotation for 3.5 min. The resultant beads were washed with KPBS and were eluted for different downstream analyses: Triton X-100 lysis buffer (50 mM Tris-HCl, pH 7.4, 150 mM NaCl, 1 mM EDTA, 1% (vol/vol) Triton X-100, and protease inhibitors) was used to elute mitochondria for Western blot analysis; 80:20 methanol:water containing 1.5 μM ^13C^15N labeled amino acids (Cambridge Isotope Laboratories, MSK-A2-1.2) was used to elute mitochondria for liquid chromatography-mass spectrometry (LC-MS) analysis; 80:20 methanol:water was used to elute mitochondria for NAD(H) and NADP(H) measurements; glutathione lysis buffer (see below) was used to elute mitochondria for GSH measurements.
For negative ionization mode liquid chromatography separation was achieved on an iHILIC-(P) Classic column (100 mm×2.1 mm, 5 μm particle size, HILICON). Mobile phase A was 10 mM ammonium bicarbonate in 10:90 acetonitrile:water with 5 μM medronic acid, pH 9.4 and mobile phase B was 10 mM ammonium bicarbonate in 90:10 acetonitrile:water with 5 μM medronic acid, pH 9.4). The gradient was 0 min, 95% B; 15 min, 50% B; 18 min, 50% B; 19 min, 95% B; 19.10 min, 95% B; 25.5 min, 95% B; 2 mins posttime. Other LC parameters were: flow rate: 200 μL/min; column temperature: 40° C., and injection volume was 2 μL. MS parameters were: gas temp: 300° C.; gas flow: 10 L/min; nebulizer pressure: 40 psig; sheath gas temp: 350° C.; sheath gas flow: 12 L/min; VCap: 3,000 V; fragmentor: 125 V. Data were acquired from m/z 50-1700 with active reference masses correction (m/z: 121.05087 and 922.00980 (positive mode) or m/z: 119.03632 and 980.01638 (negative mode). Peak identification and integration were done based on in-house exact mass and retention time library built from commercial standards. Data analysis and natural isotope abundance correction were performed using MassHunter Profinder software v10.0 (Agilent Technologies).
For metabolomic profiling of the Mito-IP samples, dried extracts were resuspended in 30 μL of 60:40 acetonitrile:water and an additional 7.5 μL of 100% methanol added to prevent phase separation. Samples were vortexed, incubated on ice for 20 min, and clarified by centrifugation at 20,000 g for 20 min at 4° C. LC-MS analysis was using the iHILIC-(P) Classic negative method described with 6545 Q-TOF mass spectrometer (Agilent Technologies). Whole cell extracts were analyzed in parallel and data analysis was performed using MassHunter Profinder v10.0 software (Agilent Technologies). Metabolite identifications reported were based on either (a) exact mass and retention times matched to authentic standards (denoted as RT in Tables 1A-1G) or (b) exact mass and MS2 spectra match using SIRIUS software (denoted as MS2 in Tables 1A-1G) (https://bio.informatik.uni-jena.de/software/sirius/). Metabolites were considered to be mitochondrial if the average peak area measured in anti-HA Mito-IPs from HA-tagged OMP25 cells was at least 1.5-fold more than in anti-HA Mito-IPs from the control cell expressing Myc-tagged OMP25 (scc Tables 1A-1G; FC>1.5 for [OMP25HA sgCtrl MitoIP vs. OMP25Myc MitoIP]).

[1] = DLD1-OMP25HA sgCtrl + Piericidin MitoIP, 5 μM 2 hours, rep01-rep03

C/C=C(\C)[C@H](O)[C@H](C)/C=C(C)/C=C/C/C(C)=C/Cc1nc(OC)c(OC)c(O)c1C [piericidin]
2-aminoadipate level [1]: 62966 and 65899 and 79200 | 3-hydroxy-3-methylglutarate level [1]: 65452 and 77263 and 90857 | 3-hydroxyhexadecanoate level [1]: 154313 and 165893 and 273073 | alpha-ketoglutarate level [1]: 36956 and 33481 and 64213 | carbamoyl aspartate level [1]: 61946 and 44834 and 50496 | citrate level [1]: 2652773 and 2956510 and 3197992 | dodecanoate level [1]: 117632035 and 108567664 and 182339246 | galactonic acid level [1]: 79663 and 109571 and 76436 | glutamine level [1]: 58654 and 57894 and 67465 | glutathione, reduced (GSH) level [1]: 5666886 and 8127441 and 4704089 | lactate level [1]: 2355878 and 2582709 and 1383509 | malate level [1]: 78861 and 87997 and 101969 | methylmalonate level [1]: 49637 and 60988 and 87945 | methylthioribulose 1-phosphate level [1]: 78919 and 79663 and 140471 | nicotinamide adenine dinucleotide, reduced (NADH) level [1]: 3526961 and 3705811 and 4542289 | oleate level [1]: 3976796 and 4283346 and 4070066 | palmitate level [1]: 58619197 and 59278003 and 34887756 | pentadecanoic acid level [1]: 988055 and 823203 and 616849 | phenylacetate level [1]: 206078 and 155618 and 258772 | phosphoglycolic acid level [1]: 12625 and 17645 and 24712 | succinate level [1]: 32755 and 39006 and 43999 | taurine level [1]: 3028424 and 3328577 and 3010797 | uridine 5′-monophosphate (UMP) level [1]: 149496 and 116561 and 209899 | glutamate and NADH levels in the mitochondria (sgCtrl DLD1-OMP25HA cells, 5 μM piericidin for 2 hours before Mito-IP): increased
